In patent US8933074B2, “1,2-disubstituted heterocyclic compounds” (FORUM Pharmaceuticals Inc., priority 2008, dated 2015):

Target: Human PDE10A1 (Homo sapiens, UniProt Q9Y233)
Experiment: hPDE10A1 enzyme inhibition
Type: biochemical
Details: [3H]-cAMP substrate, 20 minutes at 37° C.; read-out: hPDE10A1 IC50 Band
Description: 50 μl samples of serially diluted Human PDE10A1 enzyme were incubated with 50 μl of [^3H]-cAMP for 20 minutes (at 37° C.). Reactions were carried out in Greiner 96 deep well 1 ml master-block. The enzyme was diluted in 20 mM Tris HCl pH7.4 and [^3H]-cAMP was diluted in 10 mM MgCl2, 40 mM Tris.HCl pH 7.4. The reaction was terminated by denaturing the PDE enzyme (at 70° C.) after which [^3H]-5′-AMP was converted to [^3H]-adenosine by adding 25 μl snake venom nucleotidase and incubating for 10 minutes (at 37° C.). Adenosine, being neutral, was separated from charged cAMP or AMP by the addition of 200 μl Dowex resin. Samples were shaken for 20 minutes then centrifuged for 3 minutes at 2,500 r.p.m. 50 μl of supernatant was removed and added to 200 μl of MicroScint-20 in white plates (Greiner 96-well Optiplate) and shaken for 30 minutes before reading on Perkin Elmer TopCount Scintillation Counter.
To check inhibition profile 11 μl of serially diluted inhibitor was added to 50 μl of [^3H]-cAMP and 50 ul of diluted Human PDE10A1 and assay was carried out as in the enzyme activity assay. Data was analysed using Prism software (GraphPad Inc).

Human PDE10A1, sequence (Q9Y233 1-779 isoform Q9Y233-1): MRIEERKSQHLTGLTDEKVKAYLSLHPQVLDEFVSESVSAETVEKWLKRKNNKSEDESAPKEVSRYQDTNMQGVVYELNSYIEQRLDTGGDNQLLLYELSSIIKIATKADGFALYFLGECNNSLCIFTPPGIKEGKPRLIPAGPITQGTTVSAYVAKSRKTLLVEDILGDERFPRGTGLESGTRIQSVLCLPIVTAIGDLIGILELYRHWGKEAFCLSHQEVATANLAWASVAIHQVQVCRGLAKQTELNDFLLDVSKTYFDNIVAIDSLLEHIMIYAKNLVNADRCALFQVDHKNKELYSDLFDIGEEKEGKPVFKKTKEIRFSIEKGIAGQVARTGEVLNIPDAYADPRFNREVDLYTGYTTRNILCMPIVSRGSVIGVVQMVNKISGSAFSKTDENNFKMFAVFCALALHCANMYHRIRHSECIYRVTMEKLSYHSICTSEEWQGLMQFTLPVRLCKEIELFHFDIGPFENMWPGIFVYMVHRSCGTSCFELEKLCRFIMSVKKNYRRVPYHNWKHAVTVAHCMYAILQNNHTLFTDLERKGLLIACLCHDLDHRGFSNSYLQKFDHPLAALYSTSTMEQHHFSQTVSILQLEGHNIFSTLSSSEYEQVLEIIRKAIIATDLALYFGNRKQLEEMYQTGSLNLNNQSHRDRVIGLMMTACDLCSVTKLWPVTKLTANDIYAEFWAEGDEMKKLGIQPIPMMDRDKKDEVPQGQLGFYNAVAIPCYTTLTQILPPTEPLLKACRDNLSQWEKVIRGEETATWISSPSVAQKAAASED

SMILES | IC50
CN1C(=O)C(c2ccc(OCc3ccc4ccccc4n3)cc2)=C(N2CCOCC2)C1=O [Example 812, 1-Methyl-3-morpholino-4-(4-(quinolin-2-ylmethoxy)phenyl)-1H-pyrrole-2,5-dione] | > 50 nM
CC1(C)OC(c2ccnc(O)c2)=C(c2ccc(OCc3ccc4ccccc4n3)cc2)C1=O [Example 130, 5-(2-hydroxypyridin-4-yl)-2,2-dimethyl-4-(4-(quinolin-2-ylmethoxy)phenyl)furan-3(2H)-one] | ≤ 50 nM
CC1(C)OC(c2ccncc2)=C(c2ccc(OCc3ccc4cc(F)ccc4n3)cc2)C1=O [Example 810, 4-(4-((6-Fluoroquinolin-2-yl)methoxy)phenyl)-2,2-dimethyl-5-(pyridin-4-yl) furan-3(2H)-one] | ≤ 50 nM
COc1ccc(-c2c(-c3ccc(OCc4ccc5ccccc5n4)cc3)n(C)c(=O)n2C)cc1 [Example 822, 4-(4-Methoxyphenyl)-1,3-dimethyl-5-(4-(quinolin-2-ylmethoxy)phenyl)-1H-imidazol-2(3H)-one] | > 50 nM
CC(C)Oc1ccc(C2=C(c3ccc(OCc4ccc5ccccc5n4)cc3)C(=O)C(C)(C)O2)cc1 [Example 158, 5-(4-isopropoxyphenyl)-2,2-dimethyl-4-(4-(quinolin-2-ylmethoxy)phenyl)furan-3(2H)-one] | > 50 nM
COc1ccc(C2=C(c3ccc(OCc4ccc5ccccc5n4)cc3)C(=O)NC2(C)C)cc1 [Example 823, 4-(4-methoxyphenyl)-5,5-dimethyl-3-(4-(quinolin-2-ylmethoxy)phenyl)-1H-pyrrol-2(5H)-one] | ≤ 50 nM
Cc1cnc(COc2ccc(C3=C(c4ccncc4)OC(C)(C)C3=O)cc2)c(C)c1 [Example 809, 4-(4-((3,5-Dimethylpyridin-2-yl)methoxy)phenyl)-2,2-dimethyl-5-(pyridin-4-yl) furan-3(2H)-one] | ≤ 50 nM
CC1(C)OC(c2ccncc2)=C(c2ccc(OCc3ccc4ccccc4n3)cc2)C1=O [Example 125, 2,2-dimethyl-5-(pyridin-4-yl)-4-(4-(quinolin-2-ylmethoxy)phenyl) furan-3(2H)-one] | ≤ 50 nM
CC1(C)OC(c2ccccc2)=C(c2ccc(OCc3ccc4ccccc4n3)cc2)C1=O [Example 811, 2,2-dimethyl-5-phenyl-4-(4-(quinolin-2-ylmethoxy)phenyl)furan-3(2H)-one] | ≤ 50 nM

The remaining lines, values ahead:

IC50 | SMILES
≤ 50 nM | COc1ccc(C2=C(c3ccc(OCc4ccc5ccccc5n4)cc3)OC(C)(C)C2=O)cc1 [Example 262, 4-(4-methoxyphenyl)-2,2-dimethyl-5-(4-(quinolin-2-ylmethoxy)phenyl)furan-3(2H)-one]
≤ 50 nM | O=C1C(c2ccc(OCc3ccc4ccccc4n3)cc2)=C(c2ccncc2)OC12CCCC2 [Example 824, 2-(pyridin-4-yl)-3-(4-(quinolin-2-ylmethoxy)phenyl)-1-oxaspiro[4.4]non-2-en-4-one]
≤ 50 nM | CC1(C)OC(c2ccc(C(F)(F)F)cc2)=C(c2ccc(OCc3ccc4ccccc4n3)cc2)C1=O [Example 154, 2,2-dimethyl-4-(4-(quinolin-2-ylmethoxy)phenyl)-5-(4-(trifluoromethyl)phenyl)furan-3(2H)-one]
≤ 50 nM | CC1(C)OC(c2ccc(C#N)cc2)=C(c2ccc(OCc3ccc4ccccc4n3)cc2)C1=O [Example 141, 4-(5,5-Dimethyl-4-oxo-3-(4-(quinolin-2-ylmethoxy)phenyl)-4,5-dihydrofuran-2-yl)benzonitrile]
≤ 50 nM | COc1ccc(C2=C(c3ccc(OCc4ccc5ccccc5n4)cc3)C(=O)C(C)(C)O2)cc1Cl [Example 135, 5-(3-Chloro-4-methoxyphenyl)-2,2-dimethyl-4-(4-(quinolin-2-ylmethoxy)phenyl) furan-3(2H)-one]
≤ 50 nM | CC1(C)OC(c2ccc(O)nc2)=C(c2ccc(OCc3ccc4ccccc4n3)cc2)C1=O [Example 132, 5-(6-hydroxypyridin-3-yl)-2,2-dimethyl-4-(4-(quinolin-2-ylmethoxy)phenyl)furan-3(2H)-one]
≤ 50 nM | CC1(C)OC(=O)C(c2ccc(OCc3ccc4ccccc4n3)cc2)=C1c1ccncc1 [Example 23, 5,5-dimethyl-4-(pyridin-4-yl)-3-(4-(quinolin-2-ylmethoxy)phenyl)furan-2(5H)-one]
≤ 50 nM | Cc1ccc(C2=C(c3ccc(OCc4ccc5ccccc5n4)cc3)C(=O)C(C)(C)O2)cc1 [Example 818, 2,2-dimethyl-4-(4-(quinolin-2-ylmethoxy)phenyl)-5-p-tolylfuran-3(2H)-one]
≤ 50 nM | CC1(C)OC(c2ccc3nsnc3c2)=C(c2ccc(OCc3ccc4ccccc4n3)cc2)C1=O [Example 167, 5-(Benzo[c][1,2,5]thiadiazol-5-yl)-2,2-dimethyl-4-(4-(quinolin-2-ylmethoxy)phenyl)furan-3(2H)-one]

Tested on: rat
Experiment: not given
Details: rats; cited from earlier work

SMILES | apomorphine induced stereotypes | haloperidol induced catalepsy | rat brain dopamine levels
COc1ccc(Cc2nccc3cc(OC)c(OC)cc23)cc1OC [papaverine] | reduces | increases | reduces
